Assay results: ChEMBL document CHEMBL6114969, “Ultra-short lipopeptides containing d-amino acid exhibiting excellent stability and antibacterial activity against gram-positive bacteria” (Eur J Med Chem, 2025)
Values after ≈ are worked out from the molar mass of the structure shown. Active and inactive are the calls of the source. The calls are words filed in the database; no cut-off is given here.

Columns and labels:
Staphylococcus aureus [1] = assay: Antibacterial activity against methicillin-resistant Staphylococcus aureus ATCC 33591 infected in Balb/c mouse model of acute systemic infection assessed as reduction in tubule contraction in kidney at 10 mg/kg, ip measured after 5 days by H and E staining based analysis; assay type: functional, organism-based; details: time 5.0 day
Staphylococcus aureus [2] = assay: Antibacterial activity against methicillin-resistant Staphylococcus aureus ATCC 33591 infected in Balb/c mouse model of acute systemic infection assessed as reduction in inflammatory cell infiltration in heart at 10 mg/kg, ip measured after 5 days by H and E staining based analysis; assay type: functional, organism-based; details: time 5.0 day
Staphylococcus aureus [3] = assay: Induction of ROS production in methicillin-resistant Staphylococcus aureus ATCC 33591 at 1 to 4 times MIC measured upto 360 mins by DCFH-DA dye based analysis; assay type: functional, organism-based
Staphylococcus aureus [4] = assay: Antibacterial activity against ciprofloxacin-resistant methicillin-resistant Staphylococcus aureus ATCC 33591 incubated for 18 to 24 hrs; assay type: functional; details: time 18-24 hrs
Staphylococcus aureus [5] = assay: Bactericidal activity against methicillin-resistant Staphylococcus aureus ATCC 33591 at 4 times MIC incubated for 24 hrs in presence of 4 ug/ml LPS by absorbance based assay; assay type: functional, organism-based
Staphylococcus aureus [6] = assay: Bactericidal activity against methicillin-resistant Staphylococcus aureus ATCC 33591 at 4 times MIC incubated for 24 hrs in presence of >64 ug/ml phosphatidylcholine by absorbance based assay; assay type: functional, organism-based
Staphylococcus aureus [7] = assay: Antibacterial activity against methicillin-resistant Staphylococcus aureus ATCC 33591 assessed as bacterial growth inhibition at 0.5 to 1 times MIC incubated for 18 to 24 hrs by time-kill assay; assay type: functional, organism-based; details: time 18-24 hrs
Staphylococcus aureus [8] = assay: Antibacterial activity against methicillin-resistant Staphylococcus aureus ATCC 33591 incubated for 18 to 24 hrs in presence of 2 mg/ml of trypsin by broth microdilution method; assay type: functional; details: time 18-24 hrs
[9] = Toxicity in Balb/c mouse assessed as change in spleen co-efficient at 20 to 80 mg/kg, ip measured after 7 days; assay type: organism-based; details: in vivo, 168 h, dose 20-80 mg/kg, time 7 day
Staphylococcus aureus [10] = assay: Antibacterial activity against methicillin-resistant Staphylococcus aureus ATCC 33591 incubated for 18 to 24 hrs in presence of 0.5 mg/ml of pepsin by broth microdilution method; assay type: functional; details: time 18-24 hrs
[11] = Toxicity in Balb/c mouse assessed as change in serum ALT level at 20 to 80 mg/kg, ip measured after 7 days; assay type: organism-based; details: in vivo, 168 h, dose 20-80 mg/kg, time 7 day
Staphylococcus aureus [12] = assay: Antibacterial activity against methicillin-resistant Staphylococcus aureus ATCC 33591 infected in Balb/c mouse model of acute systemic infection assessed as reduction in bacterial count in kidney at 10 mg/kg, ip measured after 5 days; assay type: functional, organism-based; details: time 5.0 day
Staphylococcus aureus [13] = assay: Antibacterial activity against methicillin-resistant Staphylococcus aureus ATCC 33591 infected in Balb/c mouse model of acute systemic infection assessed as reduction in inflammatory cell infiltration in liver at 10 mg/kg, ip measured after 5 days by H and E staining based analysis; assay type: functional, organism-based; details: time 5.0 day
Staphylococcus aureus [14] = assay: Synergistic bactericidal activity against persistent methicillin-resistant Staphylococcus aureus ATCC 33591 incubated for 18 to 24 hrs in presence of imipenem by time-kill assay; assay type: functional, organism-based; details: time 18-24 hrs
DNA = assay: Binding affinity to genomic DNA in methicillin-resistant Staphylococcus aureus ATCC 33591 at 1 to 8 times MIC; assay type: nucleic-acid assay
Staphylococcus aureus [15] = assay: Antibacterial activity against drug-resistant methicillin-resistant Staphylococcus aureus ATCC 33591 incubated for 18 to 24 hrs; assay type: functional; details: time 18-24 hrs
Staphylococcus aureus [16] = assay: Induction of drug resistance in Staphylococcus aureus ATCC 25923 at sub-MIC measured after 15 passages; assay type: functional, organism-based
[17] = Toxicity in Balb/c mouse assessed as organ edema at 20 to 80 mg/kg, ip measured after 7 days; assay type: organism-based; details: in vivo, 168 h, dose 20-80 mg/kg, time 7 day
Staphylococcus aureus [18] = assay: Inhibition of imipenem-induced drug resistance in Staphylococcus aureus ATCC 25923 at sub-MIC measured upto 15 passages; assay type: functional, organism-based
[19] = Toxicity in Balb/c mouse assessed as cell swelling in spleen at 80 mg/kg, ip measured after 7 days by H and E staining based analysis; assay type: organism-based; details: in vivo, 168 h, time 7 day
Staphylococcus aureus [20] = assay: Antibacterial activity against methicillin-resistant Staphylococcus aureus ATCC 33591 infected in Balb/c mouse model of acute systemic infection assessed as reduction in bleeding in kidney at 10 mg/kg, ip measured after 5 days by H and E staining based analysis; assay type: functional, organism-based; details: time 5.0 day
Staphylococcus aureus [21] = assay: Antibacterial activity against methicillin-resistant Staphylococcus aureus ATCC 33591 incubated for 18 to 24 hrs in presence of 1 mg/ml of chymotrypsin by broth microdilution method; assay type: functional; details: time 18-24 hrs
Staphylococcus aureus [22] = assay: Antibacterial activity against methicillin-resistant Staphylococcus aureus ATCC 33591 infected in Balb/c mouse model of acute systemic infection assessed as reduction in follicular structure loss in spleen at 10 mg/kg, ip measured after 5 days by H and E staining based analysis; assay type: functional, organism-based; details: time 5.0 day
Staphylococcus aureus [23] = assay: Antibacterial activity against methicillin-resistant Staphylococcus aureus ATCC 33591 incubated for 18 to 24 hrs in presence of 2 mg/ml of pepsin by broth microdilution method; assay type: functional; details: time 18-24 hrs
[24] = Toxicity in Balb/c mouse assessed as change in serum BUN level at 20 to 80 mg/kg, ip measured after 7 days; assay type: organism-based; details: in vivo, 168 h, dose 20-80 mg/kg, time 7 day
Staphylococcus aureus [25] = assay: Additive bactericidal activity against methicillin-resistant Staphylococcus aureus ATCC 33591 incubated for 18 to 24 hrs in presence of ciprofloxacin by time-kill assay; assay type: functional, organism-based; details: time 18-24 hrs
Staphylococcus aureus [26] = assay: Inhibition of gentamicin-induced drug resistance in Staphylococcus aureus ATCC 25923 at sub-MIC measured upto 15 passages; assay type: functional, organism-based
Staphylococcus aureus [27] = assay: Antibacterial activity against methicillin-resistant Staphylococcus aureus ATCC 33591 incubated for 18 to 24 hrs in presence of 1 mg/ml of pepsin by broth microdilution method; assay type: functional; details: time 18-24 hrs
[28] = Toxicity in Balb/c mouse assessed as change in liver co-efficient at 20 to 80 mg/kg, ip measured after 7 days; assay type: organism-based; details: in vivo, 168 h, dose 20-80 mg/kg, time 7 day
Staphylococcus aureus [29] = assay: Inhibition of imipenem-induced drug resistance in methicillin-resistant Staphylococcus aureus ATCC 33591 at sub-MIC measured upto 15 passages; assay type: functional, organism-based
[30] = Toxicity in Balb/c mouse assessed as change in serum CREA level at 80 mg/kg, ip measured after 7 days; assay type: organism-based; details: in vivo, 168 h, time 7 day
Staphylococcus aureus [31] = assay: Antibacterial activity against methicillin-resistant Staphylococcus aureus ATCC 33591 infected in Balb/c mouse model of acute systemic infection assessed as reduction in bleeding in liver at 10 mg/kg, ip measured after 5 days by H and E staining based analysis; assay type: functional, organism-based; details: time 5.0 day
Mus musculus = assay: In vivo inhibition of inflammation in Balb/c mouse model of acute systemic infection infected with methicillin-resistant Staphylococcus aureus ATCC 33591 assessed as reduction in IL-1beta activity at 10 mg/kg, ip measured after 5 days; assay type: functional, organism-based; details: time 5.0 day
Staphylococcus aureus [32] = assay: Antibacterial activity against methicillin-resistant Staphylococcus aureus ATCC 33591 infected in Balb/c mouse model of pneumonia infection assessed as reduction in bacterial load in lung at 10 mg/kg, ip administered thrice at 4, 8 and 12 hrs post-infection measured after 24 hrs post-infection; assay type: functional, organism-based; details: time 20.0 hrs
[33] = Hemolytic activity in mouse Red blood cells incubated for 1 hr by absorbance based analysis; assay type: toxicity, cell-based; details: erythrocyte
Staphylococcus aureus [34] = assay: Antibacterial activity against ciprofloxacin-resistant Staphylococcus aureus ATCC 25923 incubated for 18 to 24 hrs; assay type: functional; details: time 18-24 hrs

## CCCCCCCCCCCC(=O)N[C@H](CCCNC(=N)N)C(=O)N[C@H](CCCNC(=N)N)C(=O)N[C@H](Cc1c[nH]c2ccccc12)C(=O)O
Staphylococcus aureus [1]
  Activity: Active
Staphylococcus aureus [2]
  Activity: Active
Staphylococcus aureus [3]
  Activity: Active
Staphylococcus aureus [4]
  MIC: 32 µM (≈ 22.4 µg/mL)
Staphylococcus aureus [5]
  Activity: inactive
Staphylococcus aureus [6]
  Activity: inactive
Staphylococcus aureus [7]
  inhibition: Active
Staphylococcus aureus [8]
  MIC: 4 µM
[9]
  Activity: Non-toxic
Staphylococcus aureus [10]
  MIC: 8 µM
[11]
  Activity: Non-toxic
Staphylococcus aureus [12]
  Activity: Active
Staphylococcus aureus [13]
  Activity: Active
Staphylococcus aureus [14]
  Activity: Dose-dependent-effect
DNA
  Activity: Not active; Compound Exhibited Weak Affinity
Staphylococcus aureus [15]
  MIC: 8 µM (≈ 5.59 µg/mL)
Staphylococcus aureus [16]
  Activity: inactive
[17]
  Activity: Toxic
Staphylococcus aureus [18]
  inhibition: Active
[19]
  Activity: Toxic
Staphylococcus aureus [20]
  Activity: Active
Staphylococcus aureus [21]
  MIC: 4 µM
Staphylococcus aureus [22]
  Activity: Active
Staphylococcus aureus [23]
  MIC: 8 µM
[24]
  Activity: Non-toxic
Staphylococcus aureus [25]
  Activity: Active
Staphylococcus aureus [26]
  inhibition: Active
Staphylococcus aureus [27]
  MIC: 8 µM
[28]
  Activity: Toxic
Staphylococcus aureus [29]
  inhibition: Active
[30]
  Activity: Toxic
Staphylococcus aureus [31]
  Activity: Active
Mus musculus
  inhibition: Active
Staphylococcus aureus [32]
  Activity: Active
[33]
  HC10: 64 µM
Staphylococcus aureus [34]
  MIC: 8 µM (≈ 5.59 µg/mL)
